Our source for the AC40 and activation values is PubChem BioAssay AID493225 (Broad Institute, 2011).

Several values for one entry are separate records, joined by “and”; a condition that tells them apart may be missing. Identical values can stand only once. Activity calls are given as the source filed them.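 Rule for the calls: active = fitted curve reaching 40% activation, where positive control equals 100, at or below the top valid dose; inconclusive = flat curve between 30 and 70% activation, or a poor fit; inactive = the rest, including activity in the opposite direction.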 Some results are limits rather than exact numbers.

This assay deals with Hypoxia-inducible factor 1-alpha (Homo sapiens) (UniProt Q16665). In words: GFP-HIF1alpha nuclear accumulation inducers, dose response, orthogonal assay for HIF activator project, imaging, U2OS GFP-HIF1alpha, high content, dry powder, set 2 (AID 493225). As to conditions: U2OS GFP-HIF1alpha nuclear intensity imaging; for activation: at 38 µM (top of the series).
Chain of Hypoxia-inducible factor 1-alpha (Homo sapiens) (Q16665 whole entry, looked up): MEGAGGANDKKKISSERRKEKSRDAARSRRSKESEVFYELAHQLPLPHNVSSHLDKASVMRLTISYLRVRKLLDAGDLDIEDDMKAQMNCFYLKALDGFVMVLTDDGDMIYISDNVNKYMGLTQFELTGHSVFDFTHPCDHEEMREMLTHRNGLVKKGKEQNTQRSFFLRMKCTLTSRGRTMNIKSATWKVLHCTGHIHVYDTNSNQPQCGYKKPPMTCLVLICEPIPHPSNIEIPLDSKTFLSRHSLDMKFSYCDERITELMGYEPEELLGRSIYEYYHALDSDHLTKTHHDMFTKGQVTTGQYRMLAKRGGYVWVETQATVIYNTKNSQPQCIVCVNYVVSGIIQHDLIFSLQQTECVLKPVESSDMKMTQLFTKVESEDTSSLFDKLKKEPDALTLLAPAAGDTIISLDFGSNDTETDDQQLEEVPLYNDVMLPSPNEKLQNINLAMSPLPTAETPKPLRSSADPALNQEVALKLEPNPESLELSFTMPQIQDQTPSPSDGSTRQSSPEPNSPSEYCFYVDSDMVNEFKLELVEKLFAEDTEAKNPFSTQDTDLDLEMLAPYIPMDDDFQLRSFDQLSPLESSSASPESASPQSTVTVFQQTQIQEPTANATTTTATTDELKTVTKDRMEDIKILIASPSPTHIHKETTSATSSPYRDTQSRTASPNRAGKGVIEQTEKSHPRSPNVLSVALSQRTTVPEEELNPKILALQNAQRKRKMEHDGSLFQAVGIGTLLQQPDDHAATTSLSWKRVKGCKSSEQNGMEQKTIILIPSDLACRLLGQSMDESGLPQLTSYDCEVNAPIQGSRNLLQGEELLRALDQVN

Consider `CC(Nc1nc(-c2ccccn2)nnc1-c1ccccc1)c1ccccc1` (configuration not stated), for which the AC40 was 1.1 µM.
The same measure, in the same setting: under `c1ccc(-c2nnc(-c3ccccn3)nc2N2CCC(C3CCCCC3)C2)cc1` (configuration not stated) stands 0.265 µM; under `CCCCNC(=O)c1cc(-c2ccccc2)on1`, 7.07 µM.
`c1ccc(-c2nnc(-c3ccccn3)nc2N2CCN(c3ccncc3)CC2)cc1`: the AC40 is 3.16 µM.
On to `OCC1CCN(c2nc(-c3ccccn3)nnc2-c2ccccc2)CC1`, for which the AC40 was 11 µM.
Turning to `O=C(NCC1CC1)c1cc(-c2ccccc2)on1`, the AC40 was 15.4 µM.
For `CC(C)(C)OC(=O)N1CCN(Cc2ccc(O)c3ncccc23)CC1`, the AC40 is 23.8 µM.
On to `O=C(NC1CCc2ccccc2C1)c1cc(-c2ccccc2)on1` (configuration not stated), for which the AC40 was > 38 µM (inactive).
As to `O=C(c1cc(-c2ccccc2)on1)N1CCN(c2ccncc2)CC1`, the activation was -1.92% (inactive).
As for `Oc1ccc(CN2CCC(Cc3ccccc3)CC2)c2cccnc12`, the AC40 is 8.98 µM.
Regarding `c1ccc(-c2nnc(-c3ccccn3)nc2NCCCN2CCOCC2)cc1`, the AC40 is 7.52 µM.
For the molecule `Cc1ccc(CNC(=O)c2cc(-c3ccccc3)on2)cc1`, the activation was 7.41% (inactive).
Consider `c1ccc(-c2nnc(-c3ccccn3)nc2NCc2cccnc2)cc1`, for which the AC40 was 4.19 µM.
As to `O=C(NCc1ccccc1)c1cc(-c2ccccc2)on1`, the activation is 5.64% (inactive).
As for `c1ccc(CCNc2nc(-c3ccccn3)nnc2-c2ccccc2)cc1`, the AC40 was 4.89 µM.
For the molecule `O=C(Nc1ncc2ccccc2n1)c1cc(-c2ccccc2)on1`, the activation was 10.3% (inactive).
In the case of `Oc1ccc(CNC2CCc3ccccc32)c2cccnc12` (configuration not stated), the AC40 was 13.5 µM.
For the molecule `C[C@@H](Nc1nc(-c2ccccn2)nnc1-c1ccccc1)C1CCCCC1`, the AC40 was 0.456 µM.
Still for that read-out and setting: under `OCCCNc1nc(-c2ccccn2)nnc1-c1ccccc1` stands 10.8 µM.
Regarding `O=C(NCCN1CCOCC1)c1cc(-c2ccccc2)on1`, the AC40 was 20.6 µM.
In the case of `O=C(Nc1nnc(-c2ccccc2)s1)c1cc(-c2ccccc2)on1`, the activation was -3.81% (inactive).
`CN1CCN(C(=O)c2cc(-c3ccccc3)on2)CC1`: the activation was -2.52% (inactive).
As to `c1ccc(-c2nnc(-c3ccccn3)nc2NCC2CCOCC2)cc1`, the AC40 was 7.28 µM.
As to `O=C(Nc1ncc(-c2ccccc2)o1)c1cc(-c2ccccc2)on1`, the activation is -4.43% (inactive).
Same read-out and setting: to `O=C(c1cc(-c2ccccc2)on1)N1CCc2cccnc21` belongs 3.77% (inactive).
Turning to `O=C(NCCCO)c1cc(-c2ccccc2)on1`, the AC40 is 6.49 µM.
On the same count and under the same terms, under `c1ccc(-c2csc(Nc3nc(-c4ccccn4)nnc3-c3ccccc3)n2)cc1` stands 1.05 µM.
On to `Oc1ccc(CNC2Cc3ccccc3C2)c2cccnc12`, for which the AC40 is 5.59 µM.
On the same count and under the same terms, to `COc1ccc(CNc2nc(-c3ccccn3)nnc2-c2ccccc2)cc1` belongs 1.09 µM; to `O=C(NCCCCO)c1cc(-c2ccccc2)on1`, 1.89 µM.
The same measure, in the same setting: under `C[C@@H](Nc1nc(-c2ccccn2)nnc1-c1ccccc1)c1ccccc1` stands 1.5 µM.
As to `Cc1ccccc1CNC(=O)c1cc(-c2ccccc2)on1`, the activation is 3.19% (inactive).
Same read-out and setting: under `O=C(Nc1nc(-c2ccccc2)cs1)c1cc(-c2ccccc2)on1` stands 3.11% (inactive).
As to `Cc1ccc(CNc2nc(-c3ccccn3)nnc2-c2ccccc2)cc1`, the AC40 is 0.727 µM.
With `Cc1cccc(CNC(=O)c2cc(-c3ccccc3)on2)c1`, the activation was 9.64% (inactive).
As for `Cc1ccc(CNc2nc(-c3ccccn3)nnc2-c2ccccc2)cc1C`, the AC40 was 0.736 µM.
The same measure, in the same setting: to `Oc1ccc(CN2CCC3CCCCC3C2)c2cccnc12` (configuration not stated) belongs 5.14 µM.
Regarding `Cn1c(NC(=O)c2cc(-c3ccccc3)on2)nc2ccccc21`, the activation is -4.79% (inactive).
On to `c1ccc(-c2nnc(-c3ccccn3)nc2N2CCC(c3ccccc3)C2)cc1` (configuration not stated), for which the AC40 is 0.689 µM.
For the molecule `c1ccc(-c2nnc(-c3ccccn3)nc2NCc2ccccn2)cc1`, the AC40 was 5.02 µM.
Consider `O=C(Nc1nc2ccccc2s1)c1cc(-c2ccccc2)on1`, for which the AC40 was 34.9 µM.
Regarding `OCC1CCN(Cc2ccc(O)c3ncccc23)CC1`, the AC40 is 3.69 µM.
On the same count and under the same terms, to `CC(C)(C)CCNc1nc(-c2ccccn2)nnc1-c1ccccc1` belongs 0.357 µM and 0.401 µM; to `O=C(NC1Cc2ccccc2C1)c1cc(-c2ccccc2)on1`, > 38 µM (inactive).
Turning to `O=C(NCCCn1ccnc1)c1cc(-c2ccccc2)on1`, the AC40 was 6.13 µM.
The same measure, in the same setting: to `Cc1ccccc1CNc1nc(-c2ccccn2)nnc1-c1ccccc1` belongs 0.628 µM.
In the case of `c1ccc(-c2nnc(-c3ccccn3)nc2NCC2CCCCC2)cc1`, the AC40 was 0.801 µM.
As to `CN1CCN(c2nc(-c3ccccn3)nnc2-c2ccccc2)CC1`, the AC40 is 5.53 µM.
`O=C(Nc1cn2ccccc2n1)c1cc(-c2ccccc2)on1`: the activation is 9.51% (inactive).
Turning to `Cc1cccc(Nc2nc(-c3ccccn3)nnc2-c2ccccc2)n1`, the AC40 is 2.72 µM.
Turning to `O=C(Nc1ccc2ccccc2n1)c1cc(-c2ccccc2)on1`, the activation is -3.66% (inactive).
As for `COc1ccccc1N1CCN(Cc2ccc(O)c3ncccc23)CC1`, the AC40 was 14.8 µM.
In the case of `O=C(NCC1CCCCC1)c1cc(-c2ccccc2)on1`, the activation was 8.55% (inactive).
Consider `c1ccc(-c2nnc(-c3ccccn3)nc2N2CCC(N3CCOCC3)CC2)cc1`, for which the AC40 is 5.88 µM.
Consider `O=C(c1cc(-c2ccccc2)on1)N1CCC(N2CCCC2)CC1`, for which the activation is 3.26% (inactive).
On to `N#CC1(c2ccccc2)CCN(Cc2ccc(O)c3ncccc23)CC1`, for which the AC40 was 19.8 µM.
Still for that read-out and setting: under `c1ccc(-c2nnc(-c3ccccn3)nc2NCCc2ccccn2)cc1` stands 6.24 µM; under `Cc1cccc(CNc2nc(-c3ccccn3)nnc2-c2ccccc2)c1`, 1.31 µM.
Consider `Oc1ccc(CN2CCc3ccccc3C2)c2cccnc12`, for which the AC40 is 4.51 µM and 18.1 µM.
As for `Cn1c(-c2ccccc2)cnc1NC(=O)c1cc(-c2ccccc2)on1`, the activation is 12.3% (inactive).
`CC(C)(C)c1ccc(CNc2nc(-c3ccccn3)nnc2-c2ccccc2)cc1`: the AC40 was 0.249 µM.
On the same count and under the same terms, to `c1ccc(-c2cnc(Nc3nc(-c4ccccn4)nnc3-c3ccccc3)s2)cc1` belongs 19.7 µM.
For the molecule `O=C(Nc1cnc2ccccc2c1)c1cc(-c2ccccc2)on1`, the activation was -3.02% (inactive).
For the molecule `c1ccc(-c2nnc(-c3ccccn3)nc2Nc2nc3ccccc3s2)cc1`, the AC40 is 0.491 µM.
Still for that read-out and setting: under `c1ccc(-c2nnc(-c3ccccn3)nc2NCCN2CCOCC2)cc1` stands 8.15 µM.
The same measure, in the same setting: to `c1ccc(-c2cccc(CNc3nc(-c4ccccn4)nnc3-c3ccccc3)c2)cc1` belongs 0.359 µM; to `Clc1cccc(CNc2nc(-c3ccccn3)nnc2-c2ccccc2)c1`, 0.74 µM.
As to `CN(C)c1nc(-c2ccccn2)nnc1-c1ccccc1`, the AC40 was 10.4 µM.
For `CN(C)CCNC(=O)c1cc(-c2ccccc2)on1`, the activation was 9.39% (inactive).
In the case of `C=CCNc1nc(-c2ccccn2)nnc1-c1ccccc1`, the AC40 was 4.73 µM.
With `O=C(NCCCN1CCOCC1)c1cc(-c2ccccc2)on1`, the AC40 was 17.7 µM.
The same measure, in the same setting: to `Cc1ccc(Nc2nc(-c3ccccn3)nnc2-c2ccccc2)cn1` belongs 6.61 µM.
The same measure, in the same setting: to `C[C@H](Nc1nc(-c2ccccn2)nnc1-c1ccccc1)C1CCCCC1` belongs 0.635 µM.
Consider `O=C(c1cc(-c2ccccc2)on1)N1CCC(CO)CC1`, for which the activation is -3.23% (inactive).
`CC(C)(C)CCNC(=O)c1cc(-c2ccccc2)on1`: the AC40 was > 38 µM (inactive).
`CC1CN(Cc2ccc(O)c3ncccc23)CC(C)O1` (configuration not stated): the AC40 was 20.8 µM.
Regarding `O=C(NCCN1CCCCC1)c1cc(-c2ccccc2)on1`, the AC40 is > 38 µM (inactive).
With `O=C(c1cc(-c2ccccc2)on1)N1CCC(N2CCOCC2)CC1`, the activation is -1.88% (inactive).
As to `c1ccc(-c2nnc(-c3ccccn3)nc2NCC2CC2)cc1`, the AC40 was 2.07 µM.
`Cn1c(-c2ccccc2)cnc1Nc1nc(-c2ccccn2)nnc1-c1ccccc1`: the AC40 is > 13.5 µM (inactive).
On the same count and under the same terms, under `Cc1ccc(NC(=O)c2cc(-c3ccccc3)on2)cn1` stands > 38 µM (inactive); under `COc1cccc(CNc2nc(-c3ccccn3)nnc2-c2ccccc2)c1`, 1.57 µM; under `c1ccc(CNc2nc(-c3ccccn3)nnc2-c2ccccc2)cc1`, 1.93 µM.
Turning to `c1ccc(-c2ccc(CNc3nc(-c4ccccn4)nnc3-c3ccccc3)cc2)cc1`, the AC40 was 0.164 µM.
As for `Cc1cccc(NC(=O)c2cc(-c3ccccc3)on2)n1`, the activation was 0.577% (inactive).
`c1ccc(-c2nnc(-c3ccccn3)nc2Nc2cnc3ccccc3n2)cc1`: the AC40 is 1.94 µM.
In the case of `c1ccc(-c2nnc(Nc3nc(-c4ccccn4)nnc3-c3ccccc3)s2)cc1`, the AC40 was 13.7 µM.
